Reference: patent publication US20090143279A1 (priority 2007, published 2009)
Where two headings read alike, the source gives them in different places.

Tests used:
[1] = system: reactive oxygen species; format: cell-based, mouse
[2] = system: mtOXPHOS transcripts; format: cell-based, mouse
[3] = system: OXPHOS gene expression; format: cell-based, mouse
[4] = system: cytochrome c; format: cell-based, mouse
[5] = system: nuOXPHOS transcripts; format: cell-based, mouse
[6] = system: cellular dehydrogenase activity
[7] = system: C2C12 myotubes
[8] = system: mitochondrial membrane potential; format: cell-based, mouse
[9] = 8.76 μM, composite Z-score vs DMSO
[10] = 20 μM, composite Z-score vs DMSO
[11] = composite Z-score vs DMSO, Conc 20 μM
[12] = normalized composite Z-score vs mock-treated (DMSO) wells, Conc 20 μM
[13] = Conc 20 μM, normalized score vs mock-treated (DMSO) wells
[14] = composite Z-score vs mock-treated (DMSO) wells, Conc 20 μM
[15] = composite Z-score vs DMSO wells, Conc 20 μM
[16] = 15.02 μM, composite Z-score vs DMSO

Compound `Cc1cc(N)c2ccccc2[n+]1CCCCCCCCCC[n+]1c(C)cc(N)c2ccccc21` [dequalinium] has an ROS [1, 9] of −3.041, an ROS [1, 10] of −3.055 and a mitoOX [2, 9] of −2.024. It also gave a mitoOX [2, 10] of −2.705, a GE-HTS [3, 9] of −1.322 and a GE-HTS [3, 10] of −1.733. It also gave a cyt c [4, 9] of −4.108, a cyt c [4, 10] of −3.241 and a nucOX [5, 9] of −0.852. The nucOX [5, 10] was −1.087, the MTT [6, 9] was −5.151 and the MTT [6, 10] was −4.446. It also gave a Viability [7, 9] of −3.696, a Viability [7, 10] of −3.176 and a ΔΨm [8, 9] of −3.242. For the same compound, the ΔΨm [8, 10] was −2.506.
`CC(C)=CCc1c(O)cc2occ(-c3ccc4c(c3)OCO4)c(=O)c2c1O` [derrubone] was tested, and the ROS [1, 11] was 1.419, the mitoOX [2, 11] was 0.066 and the GE-HTS [3, 11] was −0.409. For the same compound, the cyt c [4, 11] was −0.126, the nucOX [5, 11] was −0.626 and the MTT [6, 11] was −0.499. The Viability [7, 11] was −0.568 and the ΔΨm [8, 11] was −1.272.
For `COc1cc(OC)c2c(OC)c(-c3ccc4c(c3)OCO4)c(=O)oc2c1` [derrusnin], the ROS [1, 12] was 4.060, the mitoOX [2, 12] was 0.417 and the GE-HTS [3, 12] was 0.039. The cyt c [4, 12] was 0.511, the nucOX [5, 12] was −0.129 and the MTT [6, 12] was −1.630. For the same compound, the Viability [7, 12] was 1.067 and the ΔΨm [8, 12] was 0.025.
Work on `c1ccc2c(c1)CN1CCCC1=N2` [desoxypeganine] yielded an ROS [1, 11] of 0.647, a mitoOX [2, 11] of 0.556 and a GE-HTS [3, 11] of 0.631. The cyt c [4, 11] was 0.372, the nucOX [5, 11] was 0.621 and the MTT [6, 11] was 1.441. For the same compound, the Viability [7, 11] was −0.281 and the ΔΨm [8, 11] was 1.046.
`CC(=O)OCC(=O)[C@@]1(O)[C@H](C)C[C@H]2[C@@H]3CCC4=CC(=O)C=C[C@]4(C)[C@@]3(F)[C@@H](O)C[C@@]21C` [dexamethasone acetate] gave an ROS [1, 11] of 0.067, a mitoOX [2, 11] of 0.330 and a GE-HTS [3, 11] of 0.461. It also gave a cyt c [4, 11] of 0.174, a nucOX [5, 11] of 0.516 and an MTT [6, 11] of 0.058. The Viability [7, 11] was −1.518 and the ΔΨm [8, 11] was −0.439.
With `CC(=O)Oc1cccc2c1C(=O)c1c(OC(C)=O)cc(C(=O)O)cc1C2=O` [diacerin] the “ROS (composite Z-score)” value [1, 13] was 0.228, the “mitoOX (composite Z-score)” value [2, 13] was −0.239 and the “GE-HTS (composite Z-score)” value [3, 13] was −0.446. The “cyt c (composite Z-score)” value [4, 13] was 0.389, the “nucOX (composite Z-score)” value [5, 13] was −0.509 and the “MTT (composite Z-score)” value [6, 13] was −0.608. The “Viability (composite Z-score)” value [7, 13] was −0.692 and the “ΔΨm (composite Z-score)” value [8, 13] was 0.195.
With `CC(=O)c1c(O)c(C)c(O)c2c1oc1c(C(C)=O)c(O)c(C)c(O)c12` [diacetyldideisovaleryl-rhodomyrtoxin] the ROS [1, 14] was 0.967, the mitoOX [2, 14] was −0.703 and the GE-HTS [3, 14] was −0.776. For the same compound, the cyt c [4, 14] was 0.057, the nucOX [5, 14] was −0.742 and the MTT [6, 14] was 0.875. For the same compound, the Viability [7, 14] was −0.779 and the ΔΨm [8, 14] was 1.937.
Work on `Cc1onc(-c2c(Cl)cccc2Cl)c1C(=O)N[C@@H]1C(=O)N2[C@@H]1SC(C)(C)[C@@H]2C(=O)O` [dicloxacillin sodium] yielded an ROS [1, 15] of −0.070, a mitoOX [2, 15] of 0.870 and a GE-HTS [3, 15] of 0.661. The cyt c [4, 15] was −1.277, the nucOX [5, 15] was 0.533 and the MTT [6, 15] was −0.587. It also gave a Viability [7, 15] of −0.214 and a ΔΨm [8, 15] of 0.196.
Work on `C/C=C(/C(=C/C)c1ccc(O)cc1)c1ccc(O)cc1` [dienestrol] yielded an ROS [1, 16] of −0.210, an ROS [1, 10] of −0.260 and a mitoOX [2, 16] of 0.481. The mitoOX [2, 10] was −0.222, the GE-HTS [3, 16] was 0.033 and the GE-HTS [3, 10] was −0.280. The cyt c [4, 16] was 0.894, the cyt c [4, 10] was −0.653 and the nucOX [5, 16] was −0.191. For the same compound, the nucOX [5, 10] was −0.251, the MTT [6, 16] was −0.652 and the MTT [6, 10] was −0.326. The Viability [7, 16] was 0.829, the Viability [7, 10] was 0.290 and the ΔΨm [8, 16] was −0.205. For the same compound, the ΔΨm [8, 10] was 0.129.
In the case of `CC1(C)C(=O)CC[C@@]2(C)C1C[C@@H](O)[C@@]1(C)C3=CC(=O)O[C@@H](c4ccoc4)[C@]3(C)CCC21` (stereo partly shown) [dihydro-7-desacetyldeoxygedunin], the ROS [1, 12] is reported as 0.608, the mitoOX [2, 12] is reported as −1.218 and the GE-HTS [3, 12] is reported as −0.961. It also gave a cyt c [4, 12] of 0.599, a nucOX [5, 12] of −0.719 and an MTT [6, 12] of −1.403. The Viability [7, 12] was −0.527 and the ΔΨm [8, 12] was −0.170.
`CC(C)C1COc2cc3oc(=O)ccc3cc2O1` (stereo not shown) [dihydro-obliquin] showed an ROS [1, 12] of 1.045, a mitoOX [2, 12] of 0.303 and a GE-HTS [3, 12] of 0.233. It also gave a cyt c [4, 12] of −0.662, a nucOX [5, 12] of 0.192 and an MTT [6, 12] of −0.661. For the same compound, the Viability [7, 12] was −0.141 and the ΔΨm [8, 12] was −0.159.
`C=C1CCC(=O)C(C)CCC2C1CC2(C)C` (stereo not shown) [dihydrocaryophyllen-5-one] showed an ROS [1, 12] of 0.483, a mitoOX [2, 12] of −0.317 and a GE-HTS [3, 12] of −0.496. For the same compound, the cyt c [4, 12] was 0.620, the nucOX [5, 12] was −0.513 and the MTT [6, 12] was −1.453. It also gave a Viability [7, 12] of 0.219 and a ΔΨm [8, 12] of 0.090.
